Some test systems named below: OVCAR-5; SF-268; MDA-MB-231; UO-31; MOLT-4; M14; UACC-257; A498; MDA-MB-435; RXF 393; NCI/ADR-RES; NCI-H460; IGROV-1; SK-OV-3; HCT-15; HOP-92; SF-295; NCI-H522; HL-60; SK-MEL-5.
Common to all, as to assay: NCI tumour cell line growth inhibition, 48 h

Eleven molecules from ChEMBL document CHEMBL1201862, “PubChem BioAssay data set” (2004) can be followed below.

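All cell lines were grown in 96-well plates and treated with compound for 48 hours. The concentration for 50% growth inhibition is given as GI50.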 Calls of active or inactive are those of the source. Cut-off read from the data, not from the text of the source: active = GI50 up to about 1.1 µM and inactive = higher. Residues, ends and D or L forms follow the SMILES beside them.

Regarding `N#C[C@H](C(=O)c1ccccc1F)c1nc2ccccc2[nH]1`, the GI50 was > 100 µM (inactive) in the assay on OVCAR-5; > 100 µM (inactive) with SF-268; > 100 µM (inactive) in the assay with MDA-MB-231; 93.1 µM (inactive) in the assay with UO-31; > 100 µM (inactive) in the assay on MOLT-4; > 100 µM (inactive) in the assay with M14. The GI50 was > 100 µM (inactive) in the assay with UACC-257; 87.9 µM (inactive) in the assay with A498; > 100 µM (inactive) in the assay with MDA-MB-435; > 100 µM (inactive) in the assay with RXF 393; > 100 µM (inactive) in the assay on NCI/ADR-RES; > 100 µM (inactive) in the assay on NCI-H460. Moreover, the GI50 in the assay on IGROV-1 is 60.7 µM (inactive); with SK-OV-3, > 100 µM (inactive); in the assay on HCT-15, over 100 µM; in the assay with HOP-92 it was > 100 µM (inactive); in the assay on SF-295, > 100 µM (inactive).

For the molecule `COc1cc2c[n+](C)c3c4ccccc4ccc3c2cc1OC.COc1cc2cnc3c4ccccc4ccc3c2cc1OC`, the GI50 with OVCAR-5 was 17.3 µM (inactive); with SF-268, 0.592 µM (active); with NCI-H522, 1.22 µM (inactive); in the assay with MDA-MB-231 it was 2.79 µM (inactive); with UO-31 it was 66.1 µM (inactive); in the assay on HL-60 it was 42.7 µM (inactive). Moreover, the GI50 is 1.46 µM (inactive) with MOLT-4; 20.2 µM (inactive) in the assay on M14; 14.9 µM (inactive) in the assay with SK-MEL-5; 20 µM (inactive) in the assay on UACC-257; 2.87 µM (inactive) in the assay with MDA-MB-435; 21.2 µM (inactive) with RXF 393. Moreover, the GI50 was 10 µM (inactive) in the assay with NCI/ADR-RES; 11.6 µM (inactive) in the assay with NCI-H460; 11.8 µM (inactive) in the assay with IGROV-1; 9.29 µM (inactive) with SK-OV-3; over 100 µM in the assay with HCT-15; 10.6 µM (inactive) in the assay on HOP-92. Moreover, in the assay with SF-295, the GI50 was 19.6 µM (inactive).

Take `O=c1[nH]c(=O)n(COCCO)c2ccc(Br)cc12`: the GI50 is > 100 µM (inactive) with OVCAR-5; > 100 µM (inactive) in the assay on MDA-MB-231; 74.3 µM (inactive) in the assay on UO-31; > 100 µM (inactive) with HL-60; > 100 µM (inactive) in the assay on MOLT-4; > 100 µM (inactive) with M14. For the same molecule, the GI50 in the assay with SK-MEL-5, in the assay on UACC-257, with A498, in the assay on MDA-MB-435, with RXF 393 and in the assay with NCI/ADR-RES was > 100 µM (inactive) in each case. The GI50 in the assay with NCI-H460 is > 100 µM (inactive); with IGROV-1, 77.1 µM (inactive); in the assay with SK-OV-3, > 100 µM (inactive); in the assay with HCT-15, 45.9 µM; in the assay on HOP-92, > 100 µM (inactive); in the assay on SF-295 it was > 100 µM (inactive).

On to `CCOC(=O)C(C(=S)SC)c1nn2c(=O)cc(C)nc2s1` (stereo not given), for which the GI50 in the assay on OVCAR-5 was 20.8 µM (inactive); in the assay with SF-268, 17.7 µM (inactive); with NCI-H522, 21.1 µM (inactive); in the assay on MDA-MB-231 it was 19.5 µM (inactive); in the assay on UO-31, 23 µM (inactive); in the assay with HL-60, 18.1 µM (inactive). For the same molecule, the GI50 in the assay with MOLT-4 was 19.2 µM (inactive); in the assay on M14 it was 15.6 µM (inactive); in the assay on SK-MEL-5, 18.7 µM (inactive); in the assay on UACC-257 it was 21 µM (inactive); in the assay with MDA-MB-435, 18.2 µM (inactive); in the assay with RXF 393 it was 20.8 µM (inactive). Moreover, the GI50 is 24.3 µM (inactive) in the assay on NCI/ADR-RES; 18.8 µM (inactive) in the assay with NCI-H460; 19.6 µM (inactive) in the assay with IGROV-1; 22.9 µM (inactive) in the assay on SK-OV-3; 20.3 µM with HCT-15; 21.7 µM (inactive) in the assay on HOP-92. In addition, in the assay with SF-295, the GI50 was 20.3 µM (inactive).

As for `c1ccc(C2CC(NC3CCCCC3)=Nc3ccccc3N2)cc1` (stereo not given), the GI50 in the assay with OVCAR-5 was 78.2 µM (inactive); in the assay with SF-268, 65.3 µM (inactive); in the assay with NCI-H522, 22.8 µM (inactive); in the assay with MDA-MB-231 it was 24.5 µM (inactive); in the assay on UO-31, > 100 µM (inactive); with HL-60 it was 25.8 µM (inactive). Besides, the GI50 with MOLT-4 is 17.7 µM (inactive); in the assay on M14, 27.4 µM (inactive); in the assay with SK-MEL-5, 18.7 µM (inactive); in the assay with UACC-257 it was 47.5 µM (inactive); in the assay with A498, 18.8 µM (inactive); in the assay on MDA-MB-435, 24.3 µM (inactive). The GI50 in the assay with RXF 393 was 31.7 µM (inactive); in the assay with NCI/ADR-RES, > 100 µM (inactive); in the assay with NCI-H460, 46.9 µM (inactive); in the assay with IGROV-1 it was 27.7 µM (inactive); with SK-OV-3, > 100 µM (inactive); in the assay on HCT-15, 94.2 µM. Moreover, in the assay with SF-295, the GI50 was 44 µM (inactive).

Consider `COC(=O)c1cc(C)ccc1C1CN=NC12Cc1c(C)cc(C)cc1C2=O` (stereo not given), for which the GI50 was 29.4 µM (inactive) in the assay with OVCAR-5; 20.8 µM (inactive) in the assay with SF-268; 13.6 µM (inactive) with NCI-H522; 19.7 µM (inactive) with MDA-MB-231; 23 µM (inactive) with UO-31; 6.1 µM (inactive) in the assay with HL-60. Besides, the GI50 with MOLT-4 was 15.7 µM (inactive); with M14, 17 µM (inactive); with SK-MEL-5 it was 17 µM (inactive); in the assay on UACC-257, 23.9 µM (inactive); in the assay with MDA-MB-435, 16.3 µM (inactive); with RXF 393 it was 22.2 µM (inactive). Also, the GI50 was 17.7 µM (inactive) in the assay with NCI/ADR-RES; 18.1 µM (inactive) in the assay on NCI-H460; 38.2 µM (inactive) in the assay with IGROV-1; 17 µM (inactive) in the assay with SK-OV-3; 22.5 µM in the assay with HCT-15; 13.8 µM (inactive) in the assay with HOP-92. In addition, in the assay with SF-295, the GI50 is 23.2 µM (inactive).

Consider `Cc1nc2ccc(S(=O)(=O)Nc3ccccc3Cl)cc2c(=O)n1NC(=O)CNc1ccccc1Cl`, for which the GI50 in the assay with OVCAR-5, in the assay on SF-268, in the assay with NCI-H522, with MDA-MB-231, in the assay on UO-31 and in the assay on HL-60 was > 100 µM (inactive) in each case. Further, the GI50 in the assay on MOLT-4, in the assay on M14, with UACC-257, in the assay on MDA-MB-435, in the assay with NCI/ADR-RES and in the assay on NCI-H460 was > 100 µM (inactive) each time. Besides, the GI50 was > 100 µM (inactive) in the assay with IGROV-1; > 100 µM (inactive) in the assay on SK-OV-3; over 100 µM in the assay on HCT-15; > 100 µM (inactive) in the assay on HOP-92; > 100 µM (inactive) in the assay on SF-295.

In the case of `CCOC(=O)C#Cc1ccccc1`, the GI50 in the assay on OVCAR-5 was 5.08 µM (inactive); with MDA-MB-231, 16.4 µM (inactive); with UO-31 it was 0.741 µM (active); in the assay on HL-60, 14.4 µM (inactive); in the assay on MOLT-4, 2.9 µM (inactive); in the assay with M14, 5.14 µM (inactive). For the same molecule, the GI50 in the assay with SK-MEL-5 is 3.72 µM (inactive); with UACC-257, 33.9 µM (inactive); with A498, 21.3 µM (inactive); in the assay with MDA-MB-435 it was 7.18 µM (inactive); in the assay on NCI/ADR-RES it was 4.82 µM (inactive); in the assay on NCI-H460, 60 µM (inactive). Further, the GI50 is 26.6 µM (inactive) in the assay on SK-OV-3, 8.09 µM in the assay with HCT-15, 18.3 µM (inactive) in the assay with HOP-92 and 13.5 µM (inactive) with SF-295.

On to `Cc1ccc(S(=O)(=O)[N-]C2C(=O)c3ccccc3C(=O)C2[n+]2cccc(C(N)=O)c2)cc1` (stereo not given), for which the GI50 was > 100 µM (inactive) in the assay with OVCAR-5; > 100 µM (inactive) with SF-268; > 100 µM (inactive) with NCI-H522; 32.6 µM (inactive) with MDA-MB-231; > 100 µM (inactive) in the assay with UO-31; > 100 µM (inactive) in the assay on HL-60. The GI50 in the assay on MOLT-4, in the assay with M14, in the assay on SK-MEL-5, in the assay with UACC-257, in the assay with MDA-MB-435 and with RXF 393 was > 100 µM (inactive) in each case. In addition, the GI50 is > 100 µM (inactive) in the assay on NCI/ADR-RES; > 100 µM (inactive) with NCI-H460; > 100 µM (inactive) in the assay with IGROV-1; > 100 µM (inactive) with SK-OV-3; over 100 µM in the assay with HCT-15; > 100 µM (inactive) in the assay with HOP-92. Further, the GI50 with SF-295 is > 100 µM (inactive).

For `Cc1nc2c(=O)n3c4c(cccc4c2o1)CCC3`, the GI50 is > 100 µM (inactive) in the assay on OVCAR-5; > 100 µM (inactive) in the assay on SF-268; > 100 µM (inactive) in the assay with MDA-MB-231; > 100 µM (inactive) with UO-31; > 100 µM (inactive) with HL-60; 37.9 µM (inactive) with MOLT-4. Also, the GI50 in the assay with M14, with SK-MEL-5, in the assay with UACC-257, in the assay with A498, in the assay with MDA-MB-435 and in the assay on RXF 393 was > 100 µM (inactive) throughout. Moreover, the GI50 is > 100 µM (inactive) in the assay with NCI/ADR-RES; 78 µM (inactive) with NCI-H460; 76.6 µM (inactive) in the assay with IGROV-1; > 100 µM (inactive) in the assay on SK-OV-3; 49.4 µM with HCT-15; > 100 µM (inactive) in the assay on HOP-92. The GI50 in the assay with SF-295 was > 100 µM (inactive).

For `CCC(C)C(NC(=O)C1CCCN1)C(=O)NC(C(=O)NCC(=O)NC(CC(N)=O)C(=O)NC(CC(C)C)C(=O)NC(CC(C)C)C(=O)NC(CCCCN)C(N)=O)C(C)C` (stereo not given) (H-PIVGNLLK-NH2; configuration not given here), the GI50 in the assay with OVCAR-5 was > 75 µM (inactive); with SF-268, > 75 µM (inactive); in the assay with NCI-H522 it was > 75 µM (inactive); in the assay with MDA-MB-231, > 75 µM (inactive); in the assay with UO-31, > 75 µM (inactive); in the assay on HL-60 it was 23 µM (inactive). The GI50 in the assay on MOLT-4, in the assay with M14, with SK-MEL-5, in the assay on UACC-257, with A498 and in the assay on MDA-MB-435 was > 75 µM (inactive) each time. The GI50 with NCI/ADR-RES was > 75 µM (inactive); in the assay with IGROV-1, > 75 µM (inactive); in the assay on SK-OV-3, > 75 µM (inactive); in the assay on HCT-15, over 75 µM; in the assay on HOP-92, > 75 µM (inactive); in the assay with SF-295, > 75 µM (inactive).
